In US20160045614A1, “TARGETED LIPOSOMAL COMPOSITION USING ANTI-HER-2 AFFIBODY MOLECULES AND APPLICATIONS THEREOF IN CANCER TREATMENT” (priority 2014, published 2016):

How the values were obtained:
[1] = system: SKBR3, TUBO and MDA-MB231 Cells; assay: Cytotoxicity study, MTS assay; type: cell-based; conditions: 1 and 3 hours incubation, then 72 hours; FIG. 4
Experimental: The anti-proliferative effects of prepared liposomes containing Dox were assessed on SKBR3, TUBO and MDA-MB231 Cells using MTS assay (Promega). For this purpose, the cells were seeded at 5000 cells/well in 96 well plates. After overnight incubation, the medium was replaced with an FCS-free medium containing 1:2 serial dilutions of liposomal Dox or free Dox for scheduled incubation times (1 and 3 hours) at 37° C. The cells were washed gently in PBS and further incubated in the free drugs medium at 37° C. for 72 hours. The viability of cells was determined using a Promega MTS kit. Then, the IC50 of formulations were calculated.

TUBO tumor = assay: In vivo chemotherapy study, TUBO tumor model; design: species or system female BALB/c mice; conditions: 15 mg/kg; possibly acute cardiac toxicity
Experimental: All animal experiments were conducted in compliance with the Institutional Ethical Committee and Research Advisory Committee of Mashhad University of Medical Sciences guidelines. On day 0, female BALB/c mice, aged 4-6 weeks, were given subcutaneous injections of TUBO tumor cells (5×10^5 cells per mouse) in the right flank. On day 14, tumor bearing mice with palpable size received medication via a single tail vein injection of either dextrose 5% solution as negative control or doxorubicin at 15 mg/kg encapsulated in liposomes. Mice were weighed and tumor sizes were monitored within 60 days post-injection and the experiment was terminated for those mice that felt so unwell. Kaplain-Meier event free survival probability curve was obtained for each experimental group.

Q: COc1cccc2c1C(=O)c1c(O)c3c(c(O)c1C2=O)C[C@@](O)(C(=O)CO)C[C@@H]3O[C@H]1C[C@H](N)[C@H](O)[C@H](C)O1.Cl [Dox, doxorubicin hydrochloride] was tested. Which “cytotoxicity (IC50) on HER2+ cell lines SKBR3 and TUBO against HER2− cell line MDA-MB-231” value [1] did it give?
A: The value was “no distinguishing difference between cytotoxicity of HER2^+ and HER2^− cells”.

Q: And the “survival of the group under conventional Dox treatment” value (TUBO tumor)?
A: The value was “died in early days”.
